# In paper PMC10945559, “Forgotten Natural Products: Semisynthetic Development of Blasticidin S As an Antibiotic Lead” (ACS Medicinal Chemistry Letters, 2024):
# Read-outs that look alike come from different tables or passages of the source.
# Key:
# [1] = set-up: method as in PMID 5842139; details: cited from earlier work
# in vitro = format: cell-based, human; details: human; MRC-5 (lung fibroblast); 24 h; one biological replicate (n = 3); read-out: CC50 for human cells
# Protocol: (§1) as a range from biological replicates. Inhibition curves were generated using Prism (GraphPad).
# (§2) The IC50 values reported in Table 2 are the average of the two biological replicates ± standard […]
# (§3) Cytotoxicity Assay Procedure
# (§4) Human lung fibroblast cells, MRC -5 (CCL-171), were cultured at 37℃ with 5% CO2 and were plated at 5000 cells/well in a 96 -well plate. Compounds 1, 2, and 15-22 were initially prepared at concentrations of 5.12 mg/mL in a vehicle of 50% DMSO. Dilutions of the compounds (4 – 512 μg/mL) were then prepared in growth medium containing Dulbecco’s modified Eagle’s medium (DMEM) with high glucose, L -glutamine, and sodium pyruvate supplemented with 10% fetal bovine serum (FBS), 1% non -essential amino acids, and 0.1% gentamicin sulfate, and 25mM HEPES. The vehicle (50% DMSO) was also prepared via the sa me dilution series to serve as a control. Growth media was removed from the cells and replaced with the same volume of each compound dilution. Cells were incubated for 24 h , after which CellTiter 96® AQueous One Solution Reagent was added to each well as recommended by the manufacturer’s protocol (Promega CellTiter 96 AQueous One Solution Cell Proliferation Assay) and further incubated for 4 h. After incubation, absorbance was measured at 490 nm on an Infinite M plex multimode microplate reader with i -control Tecan software. Viability was calculated by subtracting media only absorbance values and normalizing to the vehicle control at each concentration. The presented data is one assay performed in triplicate that is representative of multiple trials. Data for the 256 and 512 μg/mL concentrations were removed from analysis due to vehicle toxicity […]
# (§5) CC50 concentrations were determined via the ED50 Plus v1.0 software (https://archive.org/details/ed50v10_zip).
# (§6) Figure S41. The effect of compounds on cell viability. The lines represent non -linear regression curves, and error bars represent means ± […]
# (§7) SD (n=3). […]
# [2] = test system: MRC-5 lung fibroblast cells; assay: in vitro; format: cell-based, human; details: average of SI (CC50/IC50) over the bacteria tested
# Protocol: as §1, §2, §3, §4, §5, §6, §7
# [3] = test system: methicillin-resistant S. aureus (MRSA) ATCC 43300; assay: Broth microdilution antibacterial assay; format: cell-based, Staphylococcus aureus
# Protocol: (§8) Antibacterial Assay Procedure
# (§9) Broth Microdilution Assays
# (§10) Media and solutions were autoclaved or sterile filtered prior to use and manipulations were carried out in a laminar flow hood. Antibacterial testing was performed in polypropylene 96 -well flat bottom plates. The minimal inhibitory concentration of blasticidin S ( 1) hydrochloride, P10 (2), and derivatives 15–22 were assessed against Staphylococcus aureus ΔNorA, S. aureus 8810, methicillin-resistant S. aureus (MRSA) ATCC 43300, Enterococcus faecalis ATCC 29212, vancomycin-resistant Enterococcus, Klebsiella pneumoniae ATCC 29665, Pseudomonas aeruginosa, and Acinetobacter baumannii ATCC 17978 using serial dilutions. Doxycycline (Gold Bio) as a positive control and the vehicle as a negative control. Stock solutions of each compound were prepared at 5.12 mg/mL in 50% DMSO/water and serially diluted in 50% DMSO/water to create master plates. From the master plates, 10 μL of each dilution was applied to test plates using a Bravo automated liquid transfer system (Agilent). Bacteria previously grown overnight (37 °C, 120 – 200 RPM), in LB broth were diluted to an OD600 of 0.0 5 in cation-adjusted Mueller-Hinton broth, grown to an OD600 of ~0.5, and diluted to an OD600 of 0.004 in cation-adjusted Mueller-Hinton broth. These diluted cultures were applied to the test plates (190 μL per test well) resulting in final concentrations of the test compounds of 256–2 μg/mL. Growth controls (wells with inoculated media but no vehicle or test compounds) were included to assess any potential toxicity from the vehicle. The plates were incubated at 37 °C for 16–18 h, except for VRE and E. faecalis, which were incubated at 37 °C for 24 h. Inhibition was determined by measuring the optical density at 600 nm (OD600) with a Cytation 3 plate reader (BioTek). The optical density measurements were normalized to the positive and negative controls and the vehicle and growth controls were compared and found to be indistinguishable, indicating no toxicity from the vehicle used. The MIC was the lowest concentration that inhibited >90% of growth. Two biological replicates were performed in duplicate. MIC values are reported […]
# as §1, §2, §3, §4, §5
# S. aureus 8810 = assay: Broth microdilution antibacterial assay; format: cell-based, Staphylococcus aureus
# Protocol: as §8, §9, §10, §1, §2, §3, §4, §5
# [4] = test system: vancomycin-resistant Enterococcus (VRE); assay: Broth microdilution antibacterial assay; format: cell-based
# Protocol: as §8, §9, §10, §1, §2, §3, §4, §5
# [5] = test system: Acinetobacter baumannii ATCC 17978; assay: Broth microdilution antibacterial assay; format: cell-based
# Protocol: as §8, §9, §10, §1, §2, §3, §4, §5
# [6] = test system: Klebsiella pneumoniae ATCC 29665; assay: Broth microdilution antibacterial assay; format: cell-based
# Protocol: as §8, §9, §10, §1, §2, §3, §4, §5
# [7] = test system: Staphylococcus aureus ΔNorA; assay: Broth microdilution antibacterial assay; format: cell-based
# Protocol: as §8, §9, §10, §1, §2, §3, §4, §5
# Pseudomonas aeruginosa = assay: Broth microdilution antibacterial assay; format: cell-based
# Protocol: as §8, §9, §10, §1, §2, §3, §4, §5
# [8] = test system: Enterococcus faecalis ATCC 29212; assay: Broth microdilution antibacterial assay; format: cell-based
# Protocol: as §8, §9, §10, §1, §2, §3, §4, §5
# [9] = Acinetobacter baumannii, ATCC17978
# [10] = Klebsiella pneumoniae, ATCC29665
smiles,measurement,setting,value
"CN(CC[C@H](N)CC(=O)N[C@H]1C=C[C@H](n2ccc(N)nc2=O)O[C@@H]1C(=O)O)C(=N)N [Compound 1, blasticidin S]",pKa,[1]; primary amine,8.0
same,pKa,[1]; protonated guanidine,> 12.5
same,CC50 at 24 h,in vitro,20.1 µg/mL
same,average selectivity index,[2],0.4
same,Selectivity index (CC50/IC50),[3]; MRC-5 CC50 / MRSA IC50,0.3
same,IC50,[3]; Staphylococcus aureus,59.7 ± 7.8 µg/mL
same,MIC,[3]; Staphylococcus aureus,256 µg/mL
same,MIC,"[3]; Staphylococcus aureus, read-out: Average Activity against MRSA",256 µg/mL
same,Selectivity index (CC50/IC50),S. aureus 8810; MRC-5 CC50 / S. aureus IC50,0.6
same,IC50,"S. aureus 8810; Staphylococcus aureus, 8810",33.2 ± 0.8 µg/mL
same,MIC,"S. aureus 8810; Staphylococcus aureus, 8810",> 256 µg/mL
same,MIC,"S. aureus 8810; Staphylococcus aureus, 8810, read-out: Average Activity against S. aureus",> 256 µg/mL
same,IC50,"[4]; Enterococcus, VRE",58 ± 9.4 µg/mL
same,MIC,"[4]; Enterococcus, VRE, 24 h",256 µg/mL
same,MIC,"[4]; Enterococcus, VRE, read-out: Average Activity against VRE",256 µg/mL
same,Selectivity index (CC50/IC50),[4]; MRC-5 CC50 / VRE IC50,0.3
same,IC50,[5]; [9],104 ± 25 µg/mL
same,MIC,[5]; [9],> 256 µg/mL
same,Selectivity index (CC50/IC50),[5]; MRC-5 CC50 / A. baumannii IC50,0.2
same,IC50,[6]; [10],42.3 ± 3.5 µg/mL
same,MIC,[6]; [10],128 µg/mL
same,Selectivity index (CC50/IC50),[6]; MRC-5 CC50 / K. pneumoniae IC50,0.5
same,Selectivity index (CC50/IC50),[7]; MRC-5 CC50 / S. aureus ΔNorA IC50,0.1
same,IC50,[7]; Staphylococcus aureus,140 ± 8.7 µg/mL
same,MIC,[7]; Staphylococcus aureus,> 256 µg/mL
same,Selectivity index (CC50/IC50),Pseudomonas aeruginosa; MRC-5 CC50 / P. aeruginosa IC50,0.3
same,IC50,Pseudomonas aeruginosa; Pseudomonas aeruginosa,61 ± 6 µg/mL
same,MIC,Pseudomonas aeruginosa; Pseudomonas aeruginosa,256 µg/mL
same,IC50,"[8]; Enterococcus faecalis, ATCC29212",26.3 ± 13 µg/mL
same,MIC,"[8]; Enterococcus faecalis, ATCC29212, 24 h",32 to 64 µg/mL
same,MIC,"[8]; Enterococcus faecalis, ATCC29212, read-out: Average Activity against E. faecalis",64 µg/mL
same,Selectivity index (CC50/IC50),[8]; MRC-5 CC50 / E. faecalis IC50,0.8
